Counter-ions that a name gives are not always drawn.
Tested on: ISC-enriched organoids
Test: Primary screen, 384-well 2.5-D organoid differentiation (ENR+CD, 6 days, Target Selective Inhibitor Library, vs whole-plate median): ATP (CellTiter-Glo 3D, CTG)
[1] = primary screen, dose 0.08 uM, standard z score of FC
[2] = primary screen, dose 2.00 uM, standard z score of FC
[3] = Dose 0.08 uM, standard z score of FC
[4] = Dose 0.40 uM, standard z score of FC
[5] = Dose 2.00 uM, standard z score of FC
[6] = Dose 10.00 uM, standard z score of FC
[7] = primary screen, dose 0.40 uM, standard z score of FC
[8] = primary screen, dose 10.00 uM, standard z score of FC

CCN[C@H]1CN(CCCOC)S(=O)(=O)c2sc(S(N)(=O)=O)cc21 [Brinzolamide]
Z.CTG [1]: −0.017 | Z.CTG [2]: 0.282

CCCCCCCCCCCC1=C(O)C(=O)C=C(O)C1=O [Embelin]
Z.CTG [3]: −0.770 | Z.CTG [4]: −1.728 | Z.CTG [5]: −0.776 | Z.CTG [6]: −1.720

CC(C)CC(=O)Nc1[nH]nc2c1CN(C(=O)C1CCN(C)CC1)C2(C)C [PHA-793887]
Z.CTG [3]: 0.271 | Z.CTG [4]: 0.314 | Z.CTG [5]: −0.344 | Z.CTG [6]: −2.045

Oc1c2ccccc2c2c3c(cccc13)N=N2 [SP600125]
Z.CTG (standard z score) (Dose 0.08 uM, primary screen): 0.471 | Z.CTG (standard z score) (Dose 0.40 uM, primary screen): 0.347 | Z.CTG (standard z score) (Dose 2.00 uM, primary screen): 0.246 | Z.CTG (standard z score) (Dose 10.00 uM, primary screen): −0.047

Cc1cc(OCc2nnc(SC3CCCC3)n2-c2cccnc2)ccc1-c1ccc(S(C)(=O)=O)cc1 [NMS-873]
Z.CTG [3]: 0.416 | Z.CTG [4]: −0.122 | Z.CTG [5]: −2.173 | Z.CTG [6]: −3.683

CC(=O)OCC(=O)NCCCOc1cccc(CN2CCCCC2)c1 [Roxatidine Acetate HCl]
Z.CTG (standard z score) (Dose 0.08 uM, primary screen): −0.095 | Z.CTG (standard z score) (Dose 0.40 uM, primary screen): 0.050 | Z.CTG (standard z score) (Dose 2.00 uM, primary screen): −0.245 | Z.CTG (standard z score) (Dose 10.00 uM, primary screen): −0.564

CC(NC(=O)c1ccccc1/N=C/c1c(O)ccc2ccccc12)c1ccccc1 (centres unmarked) [Sirtinol]
Z.CTG (standard z score) (Dose 0.08 uM, primary screen): −0.520 | Z.CTG (standard z score) (Dose 0.40 uM, primary screen): 0.022 | Z.CTG (standard z score) (Dose 2.00 uM, primary screen): −0.287 | Z.CTG (standard z score) (Dose 10.00 uM, primary screen): −0.186

O=C(NC[C@H]1CN(c2ccc(N3CCOCC3=O)cc2)C(=O)O1)c1ccc(Cl)s1 [Rivaroxaban]
Z.CTG (standard z score) (Dose 0.08 uM, primary screen): 0.050 | Z.CTG (standard z score) (Dose 0.40 uM, primary screen): 0.466 | Z.CTG (standard z score) (Dose 2.00 uM, primary screen): 0.123 | Z.CTG (standard z score) (Dose 10.00 uM, primary screen): 0.104

Cc1ccc(-c2cc(C(F)(F)F)nn2-c2ccc(S(N)(=O)=O)cc2)cc1 [Celecoxib]
Z.CTG [3]: −0.082 | Z.CTG [4]: −0.714 | Z.CTG [5]: −0.282 | Z.CTG [6]: −0.306

N#CC1(c2ccc(NC(=O)c3cccnc3NCc3ccncc3)cc2)CCCC1 [Apatinib]
Z.CTG [1]: 0.532 | Z.CTG [7]: 0.722 | Z.CTG [2]: 0.645 | Z.CTG [8]: 0.520

CCc1nc(N)nc(N)c1-c1ccc(Cl)cc1 [Pyrimethamine]
Z.CTG (standard z score) (Dose 0.08 uM, primary screen): 0.016 | Z.CTG (standard z score) (Dose 0.40 uM, primary screen): −0.618 | Z.CTG (standard z score) (Dose 2.00 uM, primary screen): −0.994 | Z.CTG (standard z score) (Dose 10.00 uM, primary screen): −1.480

O=c1oc2cc(O)ccc2s1 [Tioxolone]
Z.CTG (standard z score) (dose 0.08 uM): 0.586 | Z.CTG (standard z score) (dose 0.40 uM): 0.212 | Z.CTG (standard z score) (dose 2.00 uM): 0.105 | Z.CTG (standard z score) (dose 10.00 uM): 0.783

CC(C)N(CCCNC(=O)Nc1ccc(C(C)(C)C)cc1)C[C@H]1O[C@@H](n2cc(Br)c3c(N)ncnc32)[C@H](O)[C@@H]1O [SGC0946]
Z.CTG (standard z score) (Dose 0.08 uM, primary screen): 0.124 | Z.CTG (standard z score) (Dose 0.40 uM, primary screen): −0.290 | Z.CTG (standard z score) (Dose 2.00 uM, primary screen): −0.197 | Z.CTG (standard z score) (Dose 10.00 uM, primary screen): −0.340

CCOC(=O)C1=C(C)NC(C)=C(C(=O)OC)C1c1cccc(Cl)c1Cl (centres unmarked) [Felodipine]
Z.CTG [3]: −0.187 | Z.CTG [4]: −0.763 | Z.CTG [5]: 0.025 | Z.CTG [6]: 0.078

COc1cc2nc(N3CCN(C(=O)C4COc5ccccc5O4)CC3)nc(N)c2cc1OC (centres unmarked) [Doxazosin Mesylate]
Z.CTG [3]: 0.171 | Z.CTG [4]: −0.037 | Z.CTG [5]: 0.349 | Z.CTG [6]: 0.179

O=c1ncn2nc(Sc3ccc(F)cc3F)ccc2c1-c1c(Cl)cccc1Cl [VX-745]
Z.CTG (standard z score) (dose 0.08 uM): 0.445 | Z.CTG (standard z score) (dose 0.40 uM): 0.349 | Z.CTG (standard z score) (dose 2.00 uM): 0.044 | Z.CTG (standard z score) (dose 10.00 uM): 0.053

CN1C2CCCC1CC(NC(=O)c1nn(C)c3ccccc13)C2 (centres unmarked) [Granisetron HCl]
Z.CTG (Dose 0.08 uM, primary screen, standard z score): −0.512 | Z.CTG (Dose 0.40 uM, primary screen, standard z score): −0.205 | Z.CTG (Dose 2.00 uM, primary screen, standard z score): −0.426 | Z.CTG (Dose 10.00 uM, primary screen, standard z score): −0.710

CNC(=C[N+](=O)[O-])NCCSCc1ccc(CN(C)C)o1 [Ranitidine]
Z.CTG (standard z score) (Dose 0.08 uM, primary screen): −0.121 | Z.CTG (standard z score) (Dose 0.40 uM, primary screen): 0.370 | Z.CTG (standard z score) (Dose 2.00 uM, primary screen): −0.165 | Z.CTG (standard z score) (Dose 10.00 uM, primary screen): −0.625

CC(C)n1c(/C=C/C(O)CC(O)CC(=O)O)c(-c2ccc(F)cc2)c2ccccc21 (centres unmarked) [Fluvastatin Sodium]
Z.CTG [3]: −0.384 | Z.CTG [4]: −1.151 | Z.CTG [5]: −2.653 | Z.CTG [6]: −4.206

CCOC(=O)N1c2ccc(C(F)(F)F)cc2[C@@H](N(Cc2cc(C(F)(F)F)cc(C(F)(F)F)c2)C(=O)OC)C[C@H]1CC [Torcetrapib]
Z.CTG (standard z score) (dose 0.08 uM): 0.677 | Z.CTG (standard z score) (dose 0.40 uM): 0.147 | Z.CTG (standard z score) (dose 2.00 uM): −0.289 | Z.CTG (standard z score) (dose 10.00 uM): −0.360

CC[C@@H]1C(=O)N(C)c2cnc(Nc3ccc(C(=O)NC4CCN(C)CC4)cc3OC)nc2N1C1CCCC1 [BI 2536]
Z.CTG [1]: 0.069 | Z.CTG [7]: −1.275 | Z.CTG [2]: −1.220 | Z.CTG [8]: −2.455

COc1ccccc1Oc1c(NS(=O)(=O)c2ccc(C(C)(C)C)cc2)nc(-c2ncccn2)nc1OCCO [Bosentan Hydrate]
Z.CTG [1]: 0.487 | Z.CTG [7]: 0.495 | Z.CTG [2]: 0.288 | Z.CTG [8]: 0.204

Cc1cc2c(cc1CC(=O)c1sccc1S(=O)(=O)Nc1onc(C)c1Cl)OCO2 [Sitaxentan sodium]
Z.CTG (standard z score) (Dose 0.08 uM, primary screen): 0.226 | Z.CTG (standard z score) (Dose 0.40 uM, primary screen): −0.478 | Z.CTG (standard z score) (Dose 2.00 uM, primary screen): −0.230 | Z.CTG (standard z score) (Dose 10.00 uM, primary screen): −0.240

CCOC(=O)[C@H]1O[C@@H]1C(=O)N[C@@H](CC(C)C)C(=O)NCCC(C)C [Aloxistatin]
Z.CTG [1]: −0.015 | Z.CTG [7]: −0.014 | Z.CTG [2]: −0.308 | Z.CTG [8]: −0.511

COc1ccc(C(=O)N2CCCC2=O)cc1 [Aniracetam]
Z.CTG [1]: −0.211 | Z.CTG [7]: 0.267 | Z.CTG [2]: 0.130 | Z.CTG [8]: 0.045

CC(C)OC(=O)C1=CN(C(=O)c2ccc(F)c(F)c2)CC(C)(C)c2c1[nH]c1ccccc21 [XL335]
Z.CTG (standard z score) (dose 0.08 uM): 0.297 | Z.CTG (standard z score) (dose 0.40 uM): −0.615 | Z.CTG (standard z score) (dose 2.00 uM): −0.619 | Z.CTG (standard z score) (dose 10.00 uM): −0.373

CCOC(=O)C1=C(COCCN)NC(C)=C(C(=O)OC)C1c1ccccc1Cl (centres unmarked) [Amlodipine]
Z.CTG [1]: −0.837 | Z.CTG [7]: −0.866 | Z.CTG [2]: −0.888 | Z.CTG [8]: −1.006

Cc1c(C(=O)NN2CCCCC2)nn(-c2ccc(Cl)cc2Cl)c1-c1ccc(Cl)cc1 [Rimonabant]
Z.CTG (standard z score) (Dose 0.08 uM, primary screen): 0.611 | Z.CTG (standard z score) (Dose 0.40 uM, primary screen): 0.492 | Z.CTG (standard z score) (Dose 2.00 uM, primary screen): 0.561 | Z.CTG (standard z score) (Dose 10.00 uM, primary screen): 0.152

CCc1cccc2c3c([nH]c12)C(CC)(CC(=O)O)OCC3 (centres unmarked) [Etodolac]
Z.CTG [3]: −0.147 | Z.CTG [4]: 0.117 | Z.CTG [5]: 0.020 | Z.CTG [6]: 0.054

Clc1ccccc1CN1CCc2sccc2C1 [Ticlopidine HCl]
Z.CTG (standard z score) (dose 0.08 uM): −0.281 | Z.CTG (standard z score) (dose 0.40 uM): −0.097 | Z.CTG (standard z score) (dose 2.00 uM): −0.559 | Z.CTG (standard z score) (dose 10.00 uM): −0.013

Cc1sc2c(c1C)C(c1ccc(Cl)cc1)=N[C@@H](CC(=O)Nc1ccc(O)cc1)c1nnc(C)n1-2 [OTX015]
Z.CTG [3]: −0.092 | Z.CTG [4]: −0.952 | Z.CTG [5]: −1.638 | Z.CTG [6]: −2.169

COc1ccc2nc([S@@+]([O-])Cc3ncc(C)c(OC)c3C)[nH]c2c1 [Esomeprazole Sodium]
Z.CTG [3]: 0.689 | Z.CTG [4]: 0.475 | Z.CTG [5]: 0.923 | Z.CTG [6]: 0.648

C[C@@H](NCCCc1cccc(C(F)(F)F)c1)c1cccc2ccccc12 [Cinacalcet HCl]
Z.CTG [3]: −1.061 | Z.CTG [4]: −0.712 | Z.CTG [5]: −0.028 | Z.CTG [6]: −1.076

Cc1cc(C(C)(C)C)c(O)c(C)c1CC1=NCCN1 [Oxymetazoline HCl]
Z.CTG [3]: 0.340 | Z.CTG [4]: 0.281 | Z.CTG [5]: −0.016 | Z.CTG [6]: 0.282

COc1c(O)cc2c(c1O)[C@@H]1O[C@H](CO)[C@@H](O)[C@H](O)[C@H]1OC2=O [Bergenin]
Z.CTG [1]: 0.687 | Z.CTG [7]: 0.585 | Z.CTG [2]: 0.491 | Z.CTG [8]: 0.821

CC(=O)Nc1nc2c(Oc3cc(-c4ccc(C(F)(F)F)cc4)ncn3)cccc2s1 [AMG-517]
Z.CTG [1]: 0.385 | Z.CTG [7]: 0.269 | Z.CTG [2]: 0.268 | Z.CTG [8]: 0.135

Cc1nc(C(=O)NCC(=O)O)c(O)c2ccc(Oc3ccccc3)cc12 [FG-4592]
Z.CTG [3]: 0.782 | Z.CTG [4]: 0.679 | Z.CTG [5]: 0.692 | Z.CTG [6]: 0.568

CCCCN1CCCCC1C(=O)Nc1c(C)cccc1C (centres unmarked) [Bupivacaine HCl]
Z.CTG [6]: −0.870 | Z.CTG [1]: −0.008 | Z.CTG [7]: −0.517 | Z.CTG [2]: −0.717

O=c1cc(-c2ccc(O)cc2)oc2cc(O)cc(O)c12 [Apigenin]
Z.CTG [1]: 0.588 | Z.CTG [7]: 0.510 | Z.CTG [2]: 0.753 | Z.CTG [8]: 0.063

Oc1ncnc2[nH]ncc12 [Allopurinol]
Z.CTG [1]: 0.506 | Z.CTG [7]: −0.234 | Z.CTG [2]: −0.387 | Z.CTG [8]: −1.085

Oc1cc(O)cc(/C=C/c2ccc(O)c(O)c2)c1 [Piceatannol]
Z.CTG [3]: 0.554 | Z.CTG [4]: −0.216 | Z.CTG [5]: 0.177 | Z.CTG [6]: −0.170

Cc1ccccc1C(C(=O)NC1CCCCC1)N(C(=O)Cn1ccnc1C)c1cccc(F)c1 (centres unmarked) [AGI-5198]
Z.CTG [1]: 0.738 | Z.CTG [7]: 0.368 | Z.CTG [2]: 0.671 | Z.CTG [8]: 0.802

CCC(COC(=O)c1cc(OC)c(OC)c(OC)c1)(c1ccccc1)N(C)C (centres unmarked) [Trimebutine]
Z.CTG (standard z score) (dose 0.08 uM): 0.017 | Z.CTG (standard z score) (dose 0.40 uM): −0.483 | Z.CTG (standard z score) (dose 2.00 uM): −2.409 | Z.CTG (standard z score) (dose 10.00 uM): −2.545
